Test results: PMC11270681, “Synthesis and Systematic Investigation of Lepidiline A and Its Gold(I), Silver(I), and Copper(I) Complexes Using In Vitro Cancer Models and Multipotent Stem Cells” (ACS Omega, 2024)
Several values for one entry are separate records, joined by “and”; a condition that tells them apart may be missing. Equal values may be shown once. Read-outs that look alike come from different tables or passages of the source.

What was measured:
im. BM-MSC = experiment: Cytotoxicity (PrestoBlue), immortalized bone marrow MSC; format: cell-based; details: 96 h incubation
Experimental: (§1) OVCAR-3 (OVC-3) and OVCAR-8 (OVC-8) ovarian serous adenocarcinomas, IGROV-1 ovarian endometrioid adenocarcinoma, OVCAR-5 (OVC-5) upper gastrointestinal carcinoma, MDA-MB-231 breast adenocarcinoma, and MCF-7 and T-47D invasive breast carcinomas were purchased from the Developmental Therapeutic Program of the National Cancer Institute (NIH, USA) and were cultured in an RPMI medium (Thermo Fisher). Mes-Sa and Mes-Sa/Dx5 uterine sarcoma cell lines were purchased from American Type Culture Collection (ATCC) and were kept in DMEM (Thermo Fisher). Mes-Sa B1 was transfected with the human MDR1 gene, and Mes-Sa mCherry, Mes-Sa B1 mOrange, and Mes-Sa/Dx5 eGFP were engineered to stably express the respective fluorescent proteins previously.[51] Culture media for cancer cells were supplemented with 10% fetal bovine serum, 2 mM L-glutamine, and 100 units/mL penicillin and 100 μg/mL streptomycin (Thermo Fisher). The adipose tissue and bone marrow-derived mesenchymal stem cells (AD-MSC and BM-MSC) were described previously[37] and were kept in DMEM-F12 (Gibco) supplemented with 10% fetal bovine serum, L-glutamine (Thermo Fisher), 0.1% gentamicin (Gibco, 50 mg/mL), and 16 ng/mL fibroblast growth factor 2 (Peprotech). Cells were kept at 37 °C under 5% CO2 and were negative for mycoplasma infection.
(§2) Cytotoxicities of the nonfluorescent cancer cells were assessed with a PrestoBlue cell viability reagent (Thermo Fisher). Briefly, 2500 cells/well were seeded on 384-well plates; then, the next-day drugs were added. After 72 h of incubation, PrestoBlue was added in a 10% final concentration, and after an hour of additional incubation, plates were measured with a PerkinElmer EnSpire plate reader at 555 nm/585 nm excitation/emission wavelengths. Stem cells were seeded on 96-well plates at a density of 5000 cells/well, and the following day, drugs were added for 96 h of incubation; then, viability was assessed with 10% PrestoBlue diluted in PBS. Fluorescent cancer cells were admixed before seeding on 384-well plates at an 800 cells/well density each, thus altogether 2400 cells/well. Drugs were added the following day, and the intensity of the fluorescent proteins was measured after 144 h of incubation at the respective fluorescent channels (excitation/emission, eGFP: 485 nm/510 nm; mCherry: 585 nm/610 nm; mOrange: 545 nm/567 nm). pIC50 values were calculated by a custom program written by Judit Sessler in C#. IC50 values and standard deviation were calculated from average pIC50 values from at least 3 independent measurements.

MSCs = experiment: Cytotoxicity, range over MSCs; format: cell-based; details: AD-MSC, BM-MSC, immortalized BM-MSC
Experimental: as §1
(§3) Cytotoxicities of the nonfluorescent cancer cells were assessed with a PrestoBlue cell viability reagent (Thermo Fisher). Briefly, 2500 cells/well were seeded on 384-well plates; then, the next-day drugs were added. After 72 h of incubation, PrestoBlue was added in a 10% final concentration, and after an hour of additional incubation, plates were measured with a PerkinElmer EnSpire plate reader at 555 nm/585 nm excitation/emission wavelengths. Stem cells were seeded on 96-well plates at a density of 5000 cells/well, and the following day, drugs were added for 96 h of incubation; then, viability was assessed with 10% PrestoBlue diluted in PBS. […] IC50 values and standard deviation were calculated from average pIC50 values from at least 3 independent measurements.

Mes-Sa B1 = experiment: Cytotoxicity, MDR1-transfected uterine sarcoma line; format: cell-based; details: Mes-Sa B1 (MDR1 transfected, ABCB1 expressing), fluorescent protein intensity after 144 h
Experimental: as §1, §2

[1] = system: 3 ovarium cancer lines (IGROV-1, OVC-3, and OVC-8); experiment: Cytotoxicity, range over 3 ovarium cancer lines; format: cell-based; details: IGROV-1, OVC-3, OVC-8
Experimental: as §1, §2

OVC-5 = experiment: Cytotoxicity (PrestoBlue), upper gastrointestinal cancer line; format: cell-based; details: for IC50: OVC-5, 72 h incubation, PrestoBlue
Experimental: as §1, §2

Mes-Sa/Dx5 = experiment: Cytotoxicity, doxorubicin-selected MDR uterine sarcoma line; format: cell-based; details: Mes-Sa/Dx5 (doxorubicin selected, ABCB1 expressing), fluorescent protein intensity after 144 h
Experimental: as §1, §2

AD-MSC = experiment: Cytotoxicity (PrestoBlue), adipose-derived mesenchymal stem cells; format: cell-based; details: 96 h incubation
Experimental: as §1, §2

Mes-Sa [2] = experiment: Cytotoxicity, uterine sarcoma parental line; format: cell-based; details: fluorescent protein intensity after 144 h
Experimental: as §1, §2

BM-MSC = experiment: Cytotoxicity (PrestoBlue), bone marrow-derived mesenchymal stem cells; format: cell-based; details: 96 h incubation
Experimental: as §1, §2

cancer lines = experiment: Cytotoxicity, range over cancer lines; format: cell-based
Experimental: as §1, §3

[3] = system: 3 breast cancer cell lines (MDA-MB-231, MCF-7 and T-47D); experiment: Cytotoxicity, range over 3 breast cancer cell lines; format: cell-based; details: MDA-MB-231, MCF-7, T-47D
Experimental: as §1, §2

OVC-3 = experiment: Cytotoxicity (PrestoBlue), ovarian cancer line; format: cell-based; details: OVC-3, 72 h incubation
Experimental: as §1, §2

IGROV-1 = experiment: Cytotoxicity (PrestoBlue), ovarian cancer line; format: cell-based; details: IGROV-1, 72 h incubation
Experimental: as §1, §2

OVC-8 = experiment: Cytotoxicity (PrestoBlue), ovarian cancer line; format: cell-based; details: OVC-8, 72 h incubation
Experimental: as §1, §2

MDA-MB-231 = experiment: Cytotoxicity (PrestoBlue), breast cancer line; format: cell-based; details: MDA-MB-231, 72 h incubation
Experimental: as §1, §2

T-47D [4] = experiment: Cytotoxicity (PrestoBlue), breast cancer line; format: cell-based; details: 72 h incubation
Experimental: as §1, §2

MCF-7 [5] = experiment: Cytotoxicity (PrestoBlue), breast cancer line; format: cell-based
Experimental: as §1, §2

[6] = system: panel of cancer cell lines of various origins; design: method as in PMID 12932133; details: up to 10 μg/mL (approximately 60 μM for lepidiline A); cited from earlier work
HL-60 leukemia line = system: HL-60 leukemia line; design: method as in PMID 34808062; details: cited from earlier work
Mes-Sa [7] = experiment: H2DCFDA intracellular ROS production assay; format: cell-based; details: 50 μM, 4 h incubation
Experimental: (§4) To assess intracellular ROS production, we used a H2DCFDA cellular ROS assay kit (ab113851, Abcam) according to the manufacturer’s instructions. Briefly, 20,000 cells were seeded on 96-well plates. On the following day, cells were washed, and H2DCFDA solution, prepared by avoiding direct light, was added for 45 min. Next, cells were washed, and 50 μM samples of test compounds were aspirated on the cells in a complete and phenol red-free medium (FluoroBrite, Thermo Fisher). At each hour, fluorescence of 2′,7′-dichlorofluorescein (DCF) was measured at 484 nm/535 nm excitation/emission wavelengths. Values were normalized to 0 h measurements. Values indicate at least 3 independent measurements.

[8] = system: Bone marrow MSCs (BM-MSC); experiment: Cytotoxicity, range over bone marrow MSCs; format: cell-based; details: BM-MSC and immortalized BM-MSC
Experimental: as §1, §2

[9] = Stability in serum-free culture medium by HPLC-UV; format: physicochemical; details: for AUC (HPLC-UV), single measurements 1-5 / AUC (HPLC-UV), average: serum-free culture medium
Experimental: Stability of the metal complexes in solution was measured in serum-free culture medium. The compounds were dissolved in DMSO right before the experiment. Solutions of Cu-LA and Ag-LA contained 1% final volume of DMSO, while Au-LA contained 30% DMSO. Samples were taken right after dilution, and after 1 h, 2 h, 4 h, 8 h, 16 h, 32 and 48 h, and measured by HPLC-UV.

T-47D [10] = experiment: H2DCFDA intracellular ROS production assay; format: cell-based; details: 50 μM, 4 h incubation
Experimental: as §4

MCF-7 [11] = experiment: H2DCFDA intracellular ROS production assay; format: cell-based; details: MCF-7, 50 μM, 4 h incubation
Experimental: as §4

[12] = all cancer lines tested, read-out: IC50 range over cancer lines
[13] = Homo sapiens, MES-SA/Dx5, 144 h

Compound	IC50 (im. BM-MSC) [µM]	IC50 (MSCs) [µM]	IC50 (Mes-Sa B1) [µM]	IC50 [1] [µM]	IC50 (OVC-5) [µM]	IC50 (Mes-Sa/Dx5) [µM]	IC50 (AD-MSC) [µM]	IC50 (Mes-Sa [2]) [µM]	IC50 (BM-MSC) [µM]	IC50 (cancer lines; [12]) [µM]	IC50 [3] [µM]	IC50 (OVC-3) [µM]	IC50 (IGROV-1) [µM]	IC50 (OVC-8) [µM]	IC50 (MDA-MB-231) [µM]	IC50 (T-47D [4]) [µM]	IC50 (MCF-7 [5]; MCF-7, 72 h incubation) [µM]	Toxicity against a panel of cancer cell lines [6]	IC50 (HL-60 leukemia line) [µM]	IC50 (im. BM-MSC; BMMSC) [µM]	also measured
CC(=O)OC[C@H]1O[C@@H]([S-])[C@H](OC(C)=O)[C@@H](OC(C)=O)[C@@H]1OC(C)=O.CCP(CC)CC.[Au+] [Auranofin, auranofin, reference compound]	2.61	2.2 to 2.9	3.22	1.7 to 2.3	6.96	1.4	2.16	2.21	2.88	1.2 to 7	1.2 to 2.8	1.71	1.93	2.27	1.15	2.31	2.83				IC50 (OVC-5; listed as auranofin): 7 µM
Cc1c(C)[n+](Cc2ccccc2)c(C)n1Cc1ccccc1 [lepidiline B, reference compound]																		low or no toxicity	3.8		
Cc1c(C)n(Cc2ccccc2)[c](=[Au][Cl])n1Cc1ccccc1 [Au-LA, Chloro-(1,3-dibenzyl-4,5-dimethyl-imidazol-2-ylidene)gold]	5.7	5.7 to 7.5	12.8	10.5 to 17.4	24.8	13.4	5.69	9.09	7.54	7.7 to 24.8	5.8 to 12	16.6	10.5	12.7	9.58	7.71	9.49				More ROS compared to the medium (Mes-Sa [7]): ~50%; IC50 [8]: 5.7 to 15.7 µM; AUC (HPLC-UV), single measurements 1-5 ([9]; 0 h): 700 and 697 and 698; AUC (HPLC-UV), average ([9]; 0 h, Cu-LA, Ag-LA 1% DMSO, Au-LA 30% DMSO): 698; AUC (HPLC-UV), average ([9]; 1 h): 677; AUC (HPLC-UV), single measurements 1-5 ([9]; 1 h): 690 and 685 and 674 and 672 and 665; AUC (HPLC-UV), average ([9]; 2 h): 643; AUC (HPLC-UV), single measurements 1-5 ([9]; 2 h): 645 and 644 and 640 and 643; AUC (HPLC-UV), average ([9]; 4 h): 606; AUC (HPLC-UV), single measurements 1-5 ([9]; 4 h): 614 and 605 and 604 and 603; AUC (HPLC-UV), average ([9]; 8 h): 456; AUC (HPLC-UV), single measurements 1-5 ([9]; 8 h): 463 and 457 and 456 and 454 and 451; AUC (HPLC-UV), average ([9]; 16 h): 351; AUC (HPLC-UV), single measurements 1-5 ([9]; 16 h): 354 and 351 and 353 and 350 and 345; AUC (HPLC-UV), average ([9]; 32 h): 177; AUC (HPLC-UV), single measurements 1-5 ([9]; 32 h): 180 and 173 and 174 and 172 and 187; AUC (HPLC-UV), average ([9]; 48 h): 141; AUC (HPLC-UV), single measurements 1-5 ([9]; 48 h): 142 and 143 and 140 and 135; Stability in serum-free culture medium ([9]; HPLC-UV, observed 48 h): decreased after 4 h
Cc1c(C)[n+](Cc2ccccc2)cn1Cc1ccccc1.[Cl-] [LA, 1,3-Dibenzyl-4,5-dimethyl-imidazol-1-ium-chloride]					> 200							48.1		57.2				low or no toxicity	~30	47.6	Intracellular ROS production compared to the medium (T-47D [10]): did not provoke extra ROS production; Intracellular ROS production compared to the medium (Mes-Sa [7]): did not provoke extra ROS production; Intracellular ROS production compared to the medium (MCF-7 [11]): did not provoke extra ROS production; IC50 (Mes-Sa B1; Homo sapiens): > 200 µM; IC50 ([1]; Homo sapiens): 48.1 to 72.9 µM; Lower susceptibility of OVC-5 compared to the ovarian cancer lines (OVC-5; OVC-5 vs ovarian cancer lines): 4 fold; IC50 (Mes-Sa/Dx5; [13]): > 200 µM; IC50 (AD-MSC; listed as Lepidiline A): 184 µM; IC50 (AD-MSC; Mesenchymal stem cells, 96 h): 184 µM; IC50 (Mes-Sa [2]; Homo sapiens): 27.8 µM; IC50 (BM-MSC; BMMSC): 69.1 µM; IC50 ([8]; BMMSC): 48 to 98 µM; IC50 (IGROV-1; Homo sapiens): 59.9 µM; IC50 (MDA-MB-231; Homo sapiens): 91.8 µM; IC50 (T-47D [4]; Homo sapiens, T47D): 16.1 µM; IC50 (MCF-7 [5]; Homo sapiens, MCF7, MCF-7, 72 h incubation): 71.7 µM
COc1cccc2c1C(=O)c1c(O)c3c(c(O)c1C2=O)C[C@@](O)(C(=O)CO)C[C@@H]3O[C@H]1C[C@H](N)[C@H](O)[C@H](C)O1 [Doxorubicin, doxorubicin, reference compound]														0.19						0.067	IC50 (MSCs; BMMSC): 0.067 to 0.13 µM; IC50 (Mes-Sa/Dx5; [13]): 2.41 µM; IC50 (AD-MSC; Mesenchymal stem cells, 96 h): 0.13 µM; IC50 (Mes-Sa [2]; Homo sapiens): 0.038 µM; IC50 (BM-MSC; BMMSC): 0.1 µM; IC50 (cancer lines; read-out: IC50 range over non-MDR cancer cells): 0.034 to 0.22 µM; IC50 (MDA-MB-231; Homo sapiens): 0.22 µM
